Assay results from patent US20230202973A1, “BARNESIN A, DERIVATIVES AND USES THEREOF” (Leibniz-Institut Für Naturstoff-Forschung Und …, priority 2018, published 2023).
pIC50: −log10 of the molar value. Like-named read-outs stand apart in the source and are kept apart here. Square brackets hold non-standard residues; d marks the D form. Peptide text beside a SMILES is read from it. * marks the point of attachment. Sta = CC(C)C[C@H](N)[C@@H](O)CC(=O)O; Isovaleryl = CC(C)CC(=O)*

Columns and labels:
[1] = target: T1, Cathepsin B (Homo sapiens, UniProt P07858); settings: reported in literature, read-out: Cathepsin B, reported inhibitory activity as IC50 value, cited from earlier work
[2] = system: Trypsin; settings: reported in literature; cited from earlier work
[3] = system: trypsin (Thermo Fisher, 23266); test: Protease assay with azocasein, trypsin; type: biochemical; settings: 2 mM PMFS
Experimental: (§1) Protease Assays with azocasein: Protease inhibition assays against the proteases papain, ficin, trypsin, pepsin and thermolysin were performed according to the protocol of Garcia-Carreño (loc. cit.) in a reaction buffer containing 25 mM TRIS-HCl, 0.15 M NaCl, pH 7.2 (or pH 3.5 for aspartic protease). The total assay volume was 47 μL buffer with 2 μL of the protease as well as 1 μL of suitable inhibitor or corresponding inhibitor solvent (100% MeoH or water). […]
(§2) Inhibitors were dissolved in 100% MeOH or water and added to the assay (1 μL); final concentration: 2% MeOH. […] Extract absorbance controls were performed using inhibitor (1 μL in MeOH) without protease. […]
(§3) Samples were incubated with buffer and suitable inhibitor (or without for negative controls) for 1 h at r.t. and the reaction was started afterward by adding 50 μl of […] substrate and incubated for 1 h at 37° C. […] The hydrolyzed substrate supernatant was incubated in an equal volume of 0.5 N NaOH for 5 min and the absorbance was measured at 440 nm. […]
(§4) The log IC50 values were determined using the standard curves analyzing tool with four parameter logistic equation of SigmaPlot12 with technical triplicates. Propagation of error was calculated using the standard error and log IC50 values where the equation of error propagation is defined as Δy=0.43Δx/x.

[4] = target: T2, papain (Carica papaya, UniProt P00784); settings: reported in literature for known compounds; read-out: Papain, reported inhibitory activity as IC50 value; cited from earlier work
T2 construct: purchased Sigma-Aldrich P4762
T2 sequence (P00784 134-345): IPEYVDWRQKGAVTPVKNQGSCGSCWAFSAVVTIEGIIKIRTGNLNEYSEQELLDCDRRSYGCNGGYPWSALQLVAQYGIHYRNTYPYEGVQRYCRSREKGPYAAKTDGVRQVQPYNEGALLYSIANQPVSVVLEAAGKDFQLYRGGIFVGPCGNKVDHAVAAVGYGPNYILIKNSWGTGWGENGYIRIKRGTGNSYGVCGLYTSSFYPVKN

[5] = target: T1, Cathepsin B; test: Activity test against cathepsin B (initial screen, Table 5); type: biochemical; parameters: dose or concentration left out as unconfirmed
Experimental: (§5) Activity Tests Against Cathepsin B, Cathepsin L and Rhodesain.
(§6) The determination of the activity of the inhibitors against hCatL and RD was performed in fluorescence-based assays in accordance with the assays described in Giroud et al., ChemMedChem 12 (2017), 257-270 and Schirmeister, Bioorganic & Medicinal Chemistry Letters 27 (2017) 45-50. The biological activities against hCatL were determined using Cbz-Phe-Arg-AMC as substrate, which releases AMC (7-amino-4-methylcoumarin) after amide bond cleavage by the enzyme. The proteolytic activity of the enzyme can be monitored spectrophotometrically by the increase of fluorescence intensity by release of AMC (emission at 460 nm) upon hydrolysis. An initial screen at an inhibitor concentration […] was performed to identify ligands with an inhibition of hCatL and RD higher than 80%.

[6] = target: hCatL (Homo sapiens, UniProt P07711); test: Fluorescence-based activity test against cathepsin L (Cbz-Phe-Arg-AMC); type: biochemical; parameters: dose or concentration left out as unconfirmed
Chain of hCatL (P07711 114-333): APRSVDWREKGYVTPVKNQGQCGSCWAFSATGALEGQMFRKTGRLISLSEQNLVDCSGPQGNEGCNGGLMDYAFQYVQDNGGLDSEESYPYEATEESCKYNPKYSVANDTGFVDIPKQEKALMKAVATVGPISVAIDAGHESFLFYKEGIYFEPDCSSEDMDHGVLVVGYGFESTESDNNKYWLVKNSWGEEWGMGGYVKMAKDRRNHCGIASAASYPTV
Experimental: as §5, §6

[7] = target: Rhodesain (Trypanosoma brucei rhodesiense, UniProt Q95PM0); test: Fluorescence-based activity test against rhodesain; type: biochemical; settings: initial screen at an inhibitor concentration of 20 mM; ni = no inhibition
Chain of Rhodesain (Q95PM0 entry or part of it): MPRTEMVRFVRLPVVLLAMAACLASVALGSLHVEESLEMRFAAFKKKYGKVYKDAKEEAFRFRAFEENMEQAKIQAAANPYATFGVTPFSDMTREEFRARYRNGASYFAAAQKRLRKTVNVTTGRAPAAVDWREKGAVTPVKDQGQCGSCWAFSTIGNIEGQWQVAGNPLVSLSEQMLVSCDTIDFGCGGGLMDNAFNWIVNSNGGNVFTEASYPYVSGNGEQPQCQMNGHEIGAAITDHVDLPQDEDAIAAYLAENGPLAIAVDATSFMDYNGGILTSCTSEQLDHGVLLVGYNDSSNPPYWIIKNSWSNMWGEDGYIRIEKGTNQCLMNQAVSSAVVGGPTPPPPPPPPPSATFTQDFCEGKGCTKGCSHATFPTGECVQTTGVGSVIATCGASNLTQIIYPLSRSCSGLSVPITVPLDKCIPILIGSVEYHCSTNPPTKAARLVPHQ
Experimental: as §5
Rhodesain is a central cysteine protease from Trypanosoma brucei rhodesiense and a potential drug target against human African trypanosomiasis (sleeping sickness).
as §6

[8] = target: T3, papain (Sigma-Aldrich, P4762) (Carica papaya, UniProt P00784); test: Protease assay with azocasein, papain; type: biochemical; settings: 2 mM iodacetamide; read-out: inhibition of enzyme activity (control inhibitor), papain
T3 sequence (P00784 134-345): T2 sequence (P00784 134-345)
Experimental: as §1, §2, §3, §4

[9] = system: ficin (Sigma-Aldrich, F6008); test: Protease assay with azocasein, ficin; type: biochemical; settings: 2 mM iodacetamide
Experimental: as §1, §2, §3, §4

[10] = system: pepsin (Sigma-Aldrich P6887); test: Protease assay with azocasein, pepsin; type: biochemical; settings: 1 μg/mL pepstatin A
Experimental: as §1, §2, §3, §4

[11] = system: trypsin; settings: reported in literature for known compounds; read-out: Trypsin, reported inhibitory activity as IC50 value; cited from earlier work

In the case of `CC[C@H](NC(=O)C[C@H](O)[C@H](CC(C)C)NC(=O)[C@H](CC(C)C)NC(=O)[C@@H]1N[C@H]1C(=O)O)C(=O)N[C@H](/C=C/C(=O)O)CCCNC(=N)N` [Miraziridine A], the IC50 ([1]; cells printed in μM) is listed as 2.05 µM and the pIC50 [2] is listed as 4.22.
For `O=S(=O)(F)Cc1ccccc1` [PMFS], the “inhibition of enzyme activity (control inhibitor), trypsin” value [3] was greater than 95%.
In the case of `CC(C)[C@H](NC(=O)c1ccc(O)cc1)C(=O)N[C@H](C(=O)N[C@H](C=O)CCCNC(=N)N)C(C)C` [Tokaramide A], the IC50 ([1]; cells printed in nM) is given as 0.0624 µM.
In the case of `CC(C)CC(=O)N[C@H](Cc1ccc(O)cc1)C(=O)N[C@H](C(=O)N[C@@H](C=O)Cc1ccccc1)C(C)C` [YM 51084] (Isovaleryl-[dY]-Val-[dF]-aldehyde), the pIC50 [4] is listed as 5.66 and the IC50 ([1]; cells printed in nM) is listed as 0.012 µM.
In the case of `CCCCC/C=C/C(=O)N[C@H](Cc1ccc(O)cc1)C(=O)N[C@H](/C=C/C(=O)O)CCCNC(=N)N` [drawing 49], the inhibition [5] was 5%, the inhibition [6] was 7% and the “Rhodesain (%) inhibition” value [7] was “ni”.
For `NC(=O)CI` [iodacetamide], the inhibition at 2000 µM [8] was greater than 95% and the “inhibition of enzyme activity (control inhibitor), ficin” value [9] was greater than 95%.
For `CC(C)CC(=O)N[C@H](C(=O)N[C@H](C(=O)N[C@@H](CC(C)C)[C@@H](O)CC(=O)N[C@@H](C)C(=O)N[C@@H](CC(C)C)[C@@H](O)CC(=O)O)C(C)C)C(C)C` [pepstatin A] (Isovaleryl-VV[Sta]A[Sta]-OH), the “inhibition of enzyme activity (control inhibitor), pepsin” value [10] was greater than 95%.
For Cystatin, the pIC50 [4] is given as 7.54 and the pIC50 [11] is given as 5.46.
